Test results: patent publication US20080161324A1, “Compositions and methods for treatment of viral diseases” (priority 2006, published 2008)
Counter-ions that a name gives are not always drawn. Like-named read-outs stand apart in the source and are kept apart here. Marks after values point to notes of the source that are not given here.

How the values were obtained:
[1] = tested on: Huh7 cells expressing a subgenomic RNA replicon of Con1 (genotype 1b) sequence origin; experiment: microbe, parasite or virus in culture; assay type: cell-based, HCV
[2] = in words; cited from earlier work
HER1-2 = details: selective HER1 inhibitor (vs. HER1-2); cited from earlier work
[3] = Hepatitis C virus, Huh-7, 48 h; read-out: IC50
[4] = Table 1; inhibition of luciferase activity, 48 hours
[5] = Hepatitis C virus, Huh-7, 48 h; read-out: IC25 (values noted with an asterisk)
[6] = Table 1; inhibition of luciferase activity, 48 hours; read-out: IC50

CC(=O)Nc1ccccc1OCCCCCOCC(=O)Nc1ccccc1 [2′,2″-(Pentamethylenedioxy)diacetanilide]
IC50 [1, 3]: 3.14 µM

CC(=O)Nc1cccc(OCCCCCOc2cccc(NC(C)=O)c2)c1 [3′,3″-(Pentamethylenedioxy)diacetanilide]
IC25 (values noted with an asterisk) [1, 4]: 9.35*

O=C1[C@H](CC[C@H](O)c2ccc(F)cc2)[C@@H](c2ccc(O)cc2)N1c1ccc(F)cc1 [Ezetimibe]
IC50 [1, 3]: 4.2 µM

CCCC(=O)O[C@H]1CN2CC[C@H](O)[C@@H]2[C@@H](O)[C@@H]1O [Celgosivir]
IC25 [1, 5]: 6.25 µM

CC(C)NCC(O)COc1ccc(CCOCC2CC2)cc1 (stereo not drawn) [Betaxolol (e.g., hydrochloride), Betaxolol]
IC25 ([1]; Hepatitis C virus, Huh-7, 48 h, read-out: IC25 (values noted with an asterisk)): 29.4 µM

Cc1ccc(/N=C/N(C)/C=N/c2ccc(C)cc2C)c(C)c1 [Amitraz]
IC25 [1, 5]: 26.4 µM

COc1ccc(CCN(C)CCCC(C#N)(c2ccc(OC)c(OC)c2)C(C)C)cc1OC (stereo not drawn) [R(+)-Verapamil (e.g., hydrochloride), R(+)-Verapamil]
IC50 ([1]; Hepatitis C virus, Huh-7, 48 h): 15.7 µM

Beta Escin
IC50 [1, 6]: 4.27 µM

Gramicidin
IC50 [1, 6]: 0.017 µM

Clc1ccc(C(c2ccccc2Cl)C(Cl)Cl)cc1 (stereo not drawn) [Mitotane]
IC25 [1, 5]: 28.1 µM

COc1ccc(C(=O)NCc2cccnc2)cc1C(=O)NCc1cccnc1 [Picotamide]
IC25 [1, 5]: 28.7 µM

CC(C)=CC[C@@H](O)C1=CC(=O)c2c(O)ccc(O)c2C1=O [Shikonin]
IC25 [1, 5]: 26.4 µM

O=C1CC(=O)c2c(Cl)c(Cl)c(Cl)c(Cl)c21 [UCH-L3 inhibitor]
IC25 (values noted with an asterisk) ([1]; Table 1; inhibition of luciferase activity, 48 hours; in µM): 19.7*

N#C/C(=C\c1ccc(O)c(O)c1)C(N)=S [Tyrphostin 47]
IC25 (values noted with an asterisk) [1, 4]: 18.3*

CCCCOc1ccc(OCCCN2CCOCC2)cc1 [Pramoxine (e.g., hydrochloride), Pramoxine]
IC25 [1, 5]: 5.17 µM

CO[C@H]1C[C@@H]2CC[C@@H](C)[C@@](O)(O2)C(=O)C(=O)N2CCCC[C@H]2C(=O)O[C@H]([C@H](C)C[C@@H]2CC[C@@H](O)[C@H](OC)C2)CC(=O)[C@H](C)/C=C(\C)[C@@H](O)[C@@H](OC)C(=O)[C@H](C)C[C@H](C)/C=C/C=C/C=C/1C [Sirolimus]
IC25 [1, 5]: 0.005 µM

CC(=O)OC[C@H]1O[C@@H]([S-])[C@H](OC(C)=O)[C@@H](OC(C)=O)[C@@H]1OC(C)=O.CCP(CC)CC.[Au+] [Auranofin]
solubility [2]: insoluble in water

Nc1ncnc2c1ncn2CCOCP(=O)(O)O [Adefovir (e.g., dipivoxil), Adefovir]
IC50 ([1]; Table 3; inhibition of luciferase activity, 48 hours; read-out: IC50): 0.319 µM

N#C/C(=C\c1ccc(O)c(O)c1)C(=O)Nc1ccccc1 [AG-494]
IC50 (HER1-2): 45 µM

N#C/C(=C\c1ccc(O)c(O)c1)C(=O)NCc1ccccc1 [AG-490]
IC50 [1, 6]: 5.03 µM

Chlorophyllin
IC50 [1, 6]: 1.3 µM

Manganese gluconate
IC50 ([1]; read-out: IC50): 24.7 µM

Vitamin B12
IC50 [1, 6]: 8.28 µM

Tunicamycin
IC50 ([1]; Table 2; inhibition of luciferase activity, 48 hours; read-out: IC50): 0.107 µM
